These results are taken from patent US9315494B2, “Alkyl-amide-substituted pyridyl compounds useful as modulators of IL-12, IL-23 and/or IFNα responses” (Bristol-Myers Squibb Company, priority 2012, dated 2016).

A word on the EC50: it is the concentration that produces a half-maximal response.

In assay [1] the target is T1, recombinantly expressed His-tagged protein corresponding to amino acids 575-869 of human Tyk2 (Homo sapiens, UniProt P29597).
T1 construct: corresponding to amino acids 575-869 of human Tyk2; made in house
The assay is described as follows: Probe displacement assay (scintillation proximity, [3H] probe). Type of assay: binding. The note with it: 2.5 nM Tyk2 (575-869), 40 nM radiolabeled probe, 30 minutes at room temperature. On the procedure:
The probe displacement assay is conducted as follows: In a […], test compounds along with recombinantly expressed His-tagged protein corresponding to amino acids 575-869 of human Tyk2 (sequence shown below) at 2.5 nM, 40 nM ((R)-N-(1-(3-(8-methyl-5-(methylamino)-8H-imidazo[4,5-d]thiazolo[5,4-b]pyridin-2-yl)phenyl)ethyl)-2-([^3H]methylsulfonyl)benzamide) (preparation described below) and 80 μg/mL Copper His-Tag scintillation proximity assay beads (Perkin Elmer, Catalog #RPNQ0095) in 50 mM HEPES, pH 7.5, containing 100 μg/mL bovine serum albumin and 5% DMSO were incubated for 30 minutes at room temperature. The amount of radiolabeled probe (preparation described below) bound to Tyk2 was then quantified by scintillation counting, and the inhibition by the test compound calculated by comparison to wells either with no inhibitor (0% inhibition) or without Tyk2 (100% inhibition).
Protein Sequence of recombinant Hig-tagged Tyk2 (575-869):
The preparation of radiolabeled probe, (R)-N-(1-(3-(8-methyl-5-(methylamino)-8H-imidazo[4,5-d]thiazolo[5,4-b]pyridin-2-yl)phenyl)ethyl)-2-([^3H]methylsulfonyl)benzamide, was performed as described below: […]
For orientation: Scintillation proximity formats need no separation of bound from free tracer.

Assay [2] has as its system IFNα-stimulated STAT-dependent luciferase reporter in Kit225 T cells. The assay is described as follows: Kit225 T cell assay, IFNα stimulated STAT-dependent luciferase reporter. The note with it: Kit225 T cells, 200 U/mL human recombinant IFNα, 5-6 hours, luciferase; read-out: IFNα (Kit225 T Cell Inhibition Data). Type of assay: cell-based, human. In short, it runs like this: (§1)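 Stimulus was either 200 U/mL human recombinant IFNα or 20 ng/mL IL-23, applied for 5-6 h to reporter-bearing Kit225 T cells grown in RPMI/10% FBS. Luciferase expression then quantified by luminescent assay.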
On the technique in general: Reporter assays use an easily measured gene product as a stand-in for the process of interest.

Assay [3] concerns IL-23-stimulated STAT-dependent luciferase reporter in Kit225 T cells. The assay is described as follows: Kit225 T cell assay, IL-23 stimulated STAT-dependent luciferase reporter. Type of assay: cell-based, human. Conditions: Kit225 T cells, 20 ng/mL human recombinant IL-23, 5-6 hours, luciferase; read-out: IL23 (Kit225 T Cell Inhibition Data). The essentials: as §1

T1 sequence (P29597 575-869): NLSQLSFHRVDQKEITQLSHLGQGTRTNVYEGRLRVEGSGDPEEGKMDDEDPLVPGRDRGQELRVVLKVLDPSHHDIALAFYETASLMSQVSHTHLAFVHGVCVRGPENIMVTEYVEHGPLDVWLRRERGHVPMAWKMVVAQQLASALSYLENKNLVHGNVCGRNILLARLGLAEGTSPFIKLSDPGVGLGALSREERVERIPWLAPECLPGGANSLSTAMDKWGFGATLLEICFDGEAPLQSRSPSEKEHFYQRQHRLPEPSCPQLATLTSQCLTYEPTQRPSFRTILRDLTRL

On to `CNC(=O)c1cnc(Nc2ccc(N3CCCC3=O)cn2)cc1Nc1ccc(Cl)cc1OC` [Example 107], for which the concentration for a half-maximal effect (EC50) in assay [1] came out at 32.4 nM. The figures for the IC50 in assay [2] and in assay [3] were 120 nM and 189 nM, respectively.

Consider `[2H]C([2H])([2H])NC(=O)c1cnc(Nc2ccccn2)cc1Nc1cccc(-c2ncc(F)cn2)c1OC` [Example 449], for which, in assay [1], the EC50 was 1.1 nM. Further, the IC50 is 10 nM in assay [2] and 20 nM in assay [3].

Turning to `CCn1ncnc1-c1cccc(Nc2cc(Nc3cc(C)nc(C)n3)ncc2C(=O)NC)c1OC` [Example 383], in assay [1], the half-maximal effective concentration (EC50) was 6.1 nM. Besides, the IC50 was 20 nM in assay [2] and 100 nM in assay [3].

Take `CCc1cc(Nc2cc(Nc3ccccc3S(C)(=O)=O)c(C(=O)NC)cn2)ncn1` [Example 420]: the half-maximal effective concentration (EC50) in assay [1] turned out to be 3 nM. Also, the IC50 came to 120 nM in assay [2] and 80 nM in assay [3].

In the case of `CNC(=O)c1cnc(Nc2cc(C)nc(C)n2)cc1Nc1cc(F)cc(F)c1OC` [Example 409], in assay [1], the EC50 was found to be 6.3 nM. The IC50 in assay [2] came to 20 nM; in assay [3], 40 nM.

As to `CNC(=O)c1cnc(Nc2cc(C(=O)NCCOC)ccn2)cc1Nc1cc(F)cc(F)c1OC` [Example 266], the EC50 in assay [1] amounted to 6.5 nM. The figures for the IC50 in assay [2] and in assay [3] were 160 nM and 312 nM, respectively.

For `CNC(=O)c1cnc(Nc2cc(C)c(F)cn2)cc1Nc1cccc(C(=O)NCCF)c1OC` [Example 356], the concentration for a half-maximal effect (EC50) in assay [1] is 2.6 nM. Further, the IC50 worked out at 80 nM in assay [2] and 120 nM in assay [3].

On to `CNC(=O)c1cnc(Nc2ccc(N3CCOCC3)cn2)cc1Nc1ccc(Cl)cc1OC` [Example 104], for which the EC50 in assay [1] came to 17.7 nM. For the same molecule, the IC50 came to 50 nM in assay [2] and 246 nM in assay [3].
